Laboratory results from a melting point compilation (Tetko et al.; mined from patent text by program, amines drawn as free bases though some values may be those of a salt).

Structure (SMILES) | melting point
Cn1nc(Br)c([N+](=O)[O-])c1NCCO | 150 °C
COC(=O)C1CN(C(=O)c2cc(OC)c(OC)c(OC)c2)CCN1C(=O)C1=Cc2cc(OC)c(OC)cc2CCC1 (centres undefined) | 134 °C
CCCCCn1c2ccccc2c2cc(C(=O)NN3CCCCC3)ccc21 | 158 to 159 °C
Nc1nc(-c2ccncc2O)nc2c1c(C(F)(F)F)nn2C1CCCC1 | 187 to 190 °C
O=C(NCCn1ccnc1)c1sc2ccccc2c1Cl | 132 to 134 °C
Cc1ccc(F)cc1C(=O)Nc1ccc(C(=O)N2CCCCc3sccc32)cn1 | 178 to 180 °C
Cc1cc(-c2c(-c3ccc(S(C)(=O)=O)cc3)cnn(-c3ccc(F)cc3)c2=O)ccc1F | 168 to 170 °C
CS(=O)(=O)c1ccc(-c2nn3c(c2-c2ccc(F)cc2)OCCCC3)cc1 | 167 to 168 °C
Nc1nc2ccc(S(=O)(=O)n3c(CCCC(=O)O)cc4cc(Cl)ccc43)cc2o1 | 220 °C
CN(CC(O)CN(C)S(=O)(=O)C(F)(F)C(F)(F)C(F)(F)C(F)(F)F)S(=O)(=O)C(F)(F)F (centres undefined) | 79 to 85 °C
Cc1cnc(CNC(=O)c2sc(N3CCN(Cc4ccc(C(F)(F)F)cc4)C3=O)nc2C)cn1 | 172 to 173 °C
CC1(C)CC(=O)N(CC(CS(=O)(=O)c2ccc(-c3ccc(F)cc3)cc2)N(O)C=O)C(=O)C1 (centres undefined) | 105 to 109 °C
CCc1nc(-c2ncn3c4ccc(Cl)cc4c(=O)n(C)c23)no1 | 196 to 198 °C
CNC(=O)CNC(=O)c1ccc(C)c(-n2c(C)cc(OCc3ccccc3CNC(=O)Nc3cc(C(C)(C)C)nn3-c3ccc(O)c(Cl)c3)c(Cl)c2=O)c1 | 209 to 211 °C
CS(=O)(=O)CCCn1cc(C(Cc2ccccc2Br)=NO)c2ccc(Cl)c(Cl)c21 | 191 to 194 °C
CCCCC(=O)OCC1OC(n2cnc3c(OC)nc(N)nc32)C(O)C1O (centres undefined) | 105 °C
O=c1c(Cc2ccccc2)c2n(c(=O)n1CCCCCl)CCCS2(=O)=O | 103 to 105 °C
Cc1nc(-c2ccc(CCC3(O)CN4CCC3CC4)cc2)no1 (centres undefined) | 165 to 167 °C
COc1ccc(CC2c3c(cc(OC)c(OC)c3O)CCN2C)cc1 (centres undefined) | 112 to 114 °C
CCCCCCCCCCCCNC(=O)N(C)C[C@H](O)[C@@H](O)[C@H](O)[C@H](O)CO | 117 °C
O=C(c1ccccc1F)c1cc(Cl)ccc1I | 78 to 81 °C
Cc1nc(-c2noc(Cc3ccccc3)n2)sc1C(=O)NCc1ccccc1 | 124 to 125 °C
CC(=O)C1CCC2C3CCC4=CC(=O)C=CC4(C)C3C=CC12C (centres undefined) | 167 to 169 °C

Structure (SMILES) | melting point
O=c1[nH]c2cc(Cl)ccc2c(O)c1Sc1ccccc1 | > 300 °C
CN1CCN(C(=O)c2cnn(C)c2C(=O)Nc2ccn3nc(-c4cccc(F)c4)nc3c2)CC1 | 224 to 227 °C
Nc1nc(=O)n(CCCCn2cncn2)cc1F | 197 to 200 °C
COc1cc(CCCN2CCc3cc(OC)c(OC)cc3C2)ccc1NC(=O)c1cccc2c(=O)c3cccc(OC)c3[nH]c12 | 188 °C
COC(=O)C(=O)c1ccc(OCCOc2ccc([N+](=O)[O-])cc2)cc1 | 122 to 123 °C
COc1cc(OCCCN(C)Cc2ccc(OC)c(OC)c2)ccc1NC(=O)c1cccc2c(=O)c3cccc(F)c3[nH]c12 | 108 °C
C=CCc1cc2c(c(CC=C)c1O)CCC(=O)N2CC(O)CC (centres undefined) | 115 to 116 °C
O=C(O)c1ncsc1-c1cccc(I)c1 | 186 °C
CCCCc1ccc(N)nc1 | 30 to 33 °C
CCc1nc2c(cnn2CC)c(NC2CCOCC2)c1CNC(=O)c1cc(C)cc(C(=O)NCc2cccc(-c3cccc(CC4CCNCC4)c3)c2)c1 | 130 to 132 °C
CCCCCS(=O)(=O)NC(=O)CCCc1ccc(OCCOCC)cc1Oc1ncc(C(F)(F)F)cc1Cl | 96 to 97 °C
COCCC(=O)c1cc(C(=O)OC)c(N)cc1C(F)(F)F | 89 to 91 °C
FC(F)(F)c1cccc(N2CCN(Cc3ccc(-c4ccccc4)o3)CC2)c1 | 56 °C
COC(=O)c1cc(CCCc2cc3c(=O)[nH]c(N)nc3[nH]2)cs1 | 182 to 183 °C
CCCNC1=NS(=O)(=O)c2cc(C(F)(F)F)ccc2N1 | 241 to 243 °C
CCOC(=O)c1cc2c(nc1C)C(=Cc1ccc(OC(C)=O)cc1)CCC2 | 112 °C
COc1cc2nc(N3CCN(C(=O)c4nnc(SC)o4)CC3)nc(N)c2cc1OC | 228 to 230 °C
CCCn1c(=O)c2[nH]c(-c3cc(C)n(CC(=O)Nc4ccc(Cl)c(Cl)c4)n3)nc2n(CCC)c1=O | 298 °C
CN1Sc2ccccc2C(=O)C1C(=O)Nc1coc2ccccc2c1=O (centres undefined) | 290 °C
COC(=O)C[C@H](O)C[C@H](O)C=Cc1c(-c2ccc(F)cc2)c(-c2ccccc2)c(C(=O)Nc2ccccc2)n1C(C)C | 154 to 155 °C
CNC(=O)NNC(=S)N1N=C(c2ccc([N+](=O)[O-])cc2)c2cc3c(cc2CC1C)OCO3 (centres undefined) | 200 °C
c1ccc(Cn2cnc3cncnc32)cc1 | 99 to 100 °C
O=C1C=C(c2c[nH]c3ccccc23)C(=O)O1 | 210 to 214 °C

Structure (SMILES) | melting point
COc1cc(N)c(Cl)cc1C(=O)N[C@H]1CCN(Cc2cnccn2)C[C@H]1OC (relative stereo) | 204 °C
CC(C)CC(CO)NC(=O)C(Cc1c[nH]cn1)NC(=O)C(Cc1cccc2ccccc12)NC(=O)COc1cccc2ccccc12 (centres undefined) | 215 to 217 °C
CCc1cccc(C)c1CNc1cc(CO)cn2nc(C)nc12 | 180 °C
CC(C)Oc1ncc(C#N)c(O)n1 | 166 °C
O=[N+]([O-])c1cc(C(F)(F)F)c(Br)cc1-n1ccnc1 | 149 to 157 °C
Fc1c(F)c(F)c2c(CCNCc3cccc(OCC(F)(F)F)c3)c[nH]c2c1F | 107 to 108 °C
CC1(C)CC(O)c2cc(Br)ccc2O1 (centres undefined) | 97 to 99 °C
CC(C)Oc1ccc2nc(CO)n(C)c2n1 | 125 to 127 °C
CCOC(C#N)NC(=O)c1ccccc1 (centres undefined) | 107 to 110 °C
CCOC(=O)c1csc(Nc2ccc(Br)cn2)n1 | 300 to 301 °C
COc1ccc(C2(C#Cc3cccc(N)c3)CCCC(=O)C2)cc1OC1CCCC1 (centres undefined) | 100 to 102 °C
CCC(CC)Nc1nc(Cc2cc(OC)c(OC)c(OC)c2)nc2sc(C#N)c(C)c12 | 127 to 129 °C
O=C1Nc2ccc(C(F)(F)F)cc2C1c1ncnc2nn(C3CCCCC3)cc12 (centres undefined) | > 300 °C
NCCCNc1cccc2[nH]ncc12 | 154 to 163 °C
BrCc1ccc(-c2ccc(CBr)cn2)nc1 | 188 °C
COC(=O)C(CSCc1ccc(OC)cc1)NC(=O)NCCCCC1CCSS1 (centres undefined) | 105 to 107 °C
O=C(C1CC1)N1CCCc2oc(-c3ccccc3)cc2C1 | 108 to 110 °C
N#CCOc1cc(O)ccc1-c1nc2nccnc2[nH]1 | 232 to 233 °C
OC(c1ccc(Cl)cc1)(c1ccc(Cl)cc1)C1CCNCC1 | 184 to 188 °C
NC1=NS(=O)(=O)c2sc(Cl)cc2N1 | > 361 °C
CCOC(=O)N1CCN(C2=Nc3ccccc3Nc3ccsc32)CC1 | 166 °C
COc1nc(N)c(Cl)cc1C(=O)CCC1CCN(CC(C)C)CC1 | 128 °C
C=C(C)COc1ccc2c(C)cc(=O)oc2c1C(=O)C=Cc1cccc(OC)c1 | 85 to 87 °C
